“And” between values parts separate entries of the source, which are not always exact repeats. Identical values can stand only once. Like-named read-outs stand apart in the source and are kept apart here.
Key:
[1] = Clinical bioequivalence study: plasma concentrations (LC-MS-MS) and noncompartmental PK after oral tablet; type: in vivo, human
[2] = midazolam, literature referent value, cited from earlier work
[3] = model drug parameter fixed to literature reported value; cited from earlier work
[4] = Referent clinical, midazolam 15 mg tablet oral, N = 15, mean ±1 SD
[5] = human, plasma, Referent clinical, midazolam 15 mg tablet oral, N = 15, mean ±1 SD

SMILES: Cc1ncc2n1-c1ccc(Cl)cc1C(c1ccccc1F)=NC2 [Midazolam, midazolam]
- CL/F [1, 4]: 57.72 ± 19.31 L/h
- V/F [1, 4]: 205.20 ± 56.75 L
- Tmax ([1]; Referent clinical, midazolam 15 mg tablet oral, N = 15, median): 30 min
- Cmax ([1]; human, plasma, oral, 15 mg, midazolam, peak of the mean clinical concentration-time profile over 24 hours): 90.2 ng/mL
- concentration at 0 h ([1]; human, plasma, po, 15 mg, midazolam 15 mg oral, plasma, mean (±1 SD) N=15, read-out: Concentration, Referent): 0 ng/mL
- concentration at 0 h ([1]; human, plasma, po, 15 mg, midazolam 15 mg oral, plasma, one value per subject (columns A1-A8, B1-B7), read-out: Concentration, individual subjects): 0 ng/mL
- concentration at 0.25 h ([1]; human, plasma, po, 15 mg, midazolam 15 mg oral, plasma, 0.25 h, mean (±1 SD) N=15, read-out: Concentration, Referent): 12.2 ± 14.4 ng/mL
- concentration at 0.5 h ([1]; human, plasma, po, 15 mg, midazolam 15 mg oral, plasma, 0.5 h, mean (±1 SD) N=15, read-out: Concentration, Referent): 90.2 ± 47.6 ng/mL
- concentration at 1 h ([1]; human, plasma, po, 15 mg, midazolam 15 mg oral, plasma, 1 h, mean (±1 SD) N=15, read-out: Concentration, Referent): 56.6 ± 22.6 ng/mL
- concentration at 1.5 h ([1]; human, plasma, po, 15 mg, midazolam 15 mg oral, plasma, 1.5 h, mean (±1 SD) N=15, read-out: Concentration, Referent): 46.8 ± 12.5 ng/mL
- concentration at 2 h ([1]; human, plasma, po, 15 mg, midazolam 15 mg oral, plasma, 2 h, mean (±1 SD) N=15, read-out: Concentration, Referent): 47.8 ± 19.1 ng/mL
- concentration at 2.5 h ([1]; human, plasma, po, 15 mg, midazolam 15 mg oral, plasma, 2.5 h, mean (±1 SD) N=15, read-out: Concentration, Referent): 41.1 ± 15.1 ng/mL
- concentration at 3 h ([1]; human, plasma, po, 15 mg, midazolam 15 mg oral, plasma, 3 h, mean (±1 SD) N=15, read-out: Concentration, Referent): 40.3 ± 26.1 ng/mL
- concentration at 4 h ([1]; human, plasma, po, 15 mg, midazolam 15 mg oral, plasma, 4 h, mean (±1 SD) N=15, read-out: Concentration, Referent): 32.4 ± 21.1 ng/mL
- concentration at 6 h ([1]; human, plasma, po, 15 mg, midazolam 15 mg oral, plasma, 6 h, mean (±1 SD) N=15, read-out: Concentration, Referent): 15.6 ± 9.4 ng/mL
- concentration at 8 h ([1]; human, plasma, po, 15 mg, midazolam 15 mg oral, plasma, 8 h, mean (±1 SD) N=15, read-out: Concentration, Referent): 9.33 ± 5.73 ng/mL
- concentration at 10 h ([1]; human, plasma, po, 15 mg, midazolam 15 mg oral, plasma, 10 h, mean (±1 SD) N=15, read-out: Concentration, Referent): 5.75 ± 4.06 ng/mL
- concentration at 12 h ([1]; human, plasma, po, 15 mg, midazolam 15 mg oral, plasma, 12 h, mean (±1 SD) N=15, read-out: Concentration, Referent): 3.48 ± 2.75 ng/mL
- concentration at 24 h ([1]; human, plasma, po, 15 mg, midazolam 15 mg oral, plasma, 24 h, mean (±1 SD) N=15, read-out: Concentration, Referent): 0.41 ± 0.63 ng/mL
- AUC [1, 5]: 296 ± 126 ng·h/mL
- Cmax [1, 5]: 101 ± 33 ng/mL
- k el [1, 5]: 7.78e-05 s⁻¹
- Concentration, individual subjects ([1]; midazolam 15 mg oral, plasma, 2.5 h, one value per subject (columns A1-A8, B1-B7)): 54.91 ng/mL and 40.38 ng/mL and 25.80 ng/mL and 40.78 ng/mL and 31.74 ng/mL and 48.76 ng/mL and 34.21 ng/mL and 20.63 ng/mL and 33.92 ng/mL and 30.24 ng/mL and 57.61 ng/mL and 24.84 ng/mL and 35.19 ng/mL and 58.33 ng/mL and 78.77 ng/mL
- Concentration, individual subjects ([1]; midazolam 15 mg oral, plasma, 3 h, one value per subject (columns A1-A8, B1-B7)): 52.06 ng/mL and 27.73 ng/mL and 21.71 ng/mL and 25.74 ng/mL and 36.83 ng/mL and 69.41 ng/mL and 35.36 ng/mL and 17.14 ng/mL and 26.32 ng/mL and 22.37 ng/mL and 41.78 ng/mL and 21.67 ng/mL and 38.29 ng/mL and 47.32 ng/mL and 120.12 ng/mL
- Concentration, individual subjects ([1]; midazolam 15 mg oral, plasma, 4 h, one value per subject (columns A1-A8, B1-B7)): 42.50 ng/mL and 20.80 ng/mL and 19.34 ng/mL and 20.60 ng/mL and 28.96 ng/mL and 77.03 ng/mL and 23.38 ng/mL and 14.36 ng/mL and 20.65 ng/mL and 15.37 ng/mL and 24.77 ng/mL and 22.90 ng/mL and 30.75 ng/mL and 41.37 ng/mL and 83.44 ng/mL
- Concentration, individual subjects ([1]; midazolam 15 mg oral, plasma, 6 h, one value per subject (columns A1-A8, B1-B7)): 24.75 ng/mL and 8.47 ng/mL and 11.09 ng/mL and 8.46 ng/mL and 15.04 ng/mL and 29.67 ng/mL and 12.43 ng/mL and 6.69 ng/mL and 9.53 ng/mL and 10.09 ng/mL and 12.41 ng/mL and 7.25 ng/mL and 15.05 ng/mL and 24.91 ng/mL and 38.15 ng/mL
- Concentration, individual subjects ([1]; midazolam 15 mg oral, plasma, 8 h, one value per subject (columns A1-A8, B1-B7)): 14.78 ng/mL and 4.58 ng/mL and 5.87 ng/mL and 3.98 ng/mL and 6.08 ng/mL and 15.63 ng/mL and 6.16 ng/mL and 4.20 ng/mL and 7.07 ng/mL and 8.11 ng/mL and 11.11 ng/mL and 3.58 ng/mL and 8.96 ng/mL and 17.42 ng/mL and 22.42 ng/mL
- Concentration, individual subjects ([1]; midazolam 15 mg oral, plasma, 10 h, one value per subject (columns A1-A8, B1-B7)): 9.22 ng/mL and 2.05 ng/mL and 4.27 ng/mL and 2.24 ng/mL and 3.91 ng/mL and 8.93 ng/mL and 3.37 ng/mL and 2.53 ng/mL and 5.05 ng/mL and 3.40 ng/mL and 6.04 ng/mL and 1.38 ng/mL and 5.79 ng/mL and 13.69 ng/mL and 14.29 ng/mL
- Concentration, individual subjects ([1]; midazolam 15 mg oral, plasma, 12 h, one value per subject (columns A1-A8, B1-B7)): 5.37 ng/mL and 1.26 ng/mL and 2.53 ng/mL and 1.54 ng/mL
- F (absolute oral bioavailability) [2]: 31–72%
- Fa × Fg [2]: 48–76%
- Fh [2]: 36–57%
- Fa × Fg ([2]; listed as midazolam): 48–76%
- Fh ([2]; listed as midazolam): 36–57%
- logP, In silico Logarithm of partition coefficient [3]: 3.6

Reference: article PMC6118387, “In silico drug absorption tract: An agent-based biomimetic model for human oral drug absorption” (PLoS ONE, 2018)
